Measurements taken from the supplement of paper PMC10307832.

Key:
Assay in all cases: relative viability (nuclei count vs DMSO), 5 days (fraction); higher = more cells survive
CX-5461 + Tozasertib = compound: Cc1cnc(CNC(=O)c2c(=O)c3ccc(N4CCCN(C)CC4)nc3n3c2sc2ccccc23)cn1 [CX-5461] + Cc1cc(Nc2cc(N3CCN(C)CC3)nc(Sc3ccc(NC(=O)C4CC4)cc3)n2)n[nH]1 [Tozasertib] (partner 0.1 µM)
Procedure, shortened: (§1)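 Lung cancer cell lines in 1536-well plates got either a single drug or a fixed anchor-drug dose together with five library-drug doses (not always all listed) in √10 steps, by pin tool, on the day after seeding. Nuclei were counted after 5 days, and relative viability is the treated-to-vehicle ratio of nuclei counts. Values are medians of duplicate plates.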

IMD-0354 + Palbociclib = compound: O=C(Nc1cc(C(F)(F)F)cc(C(F)(F)F)c1)c1cc(Cl)ccc1O [IMD-0354] + CC(=O)c1c(C)c2cnc(Nc3ccc(N4CCNCC4)cn3)nc2n(C2CCCC2)c1=O [Palbociclib] (partner 0.5 µM)
Procedure, shortened: as §1

IMD-0354 + Navitoclax = compound: O=C(Nc1cc(C(F)(F)F)cc(C(F)(F)F)c1)c1cc(Cl)ccc1O [IMD-0354] + CC1(C)CCC(c2ccc(Cl)cc2)=C(CN2CCN(c3ccc(C(=O)NS(=O)(=O)c4ccc(N[C@H](CCN5CCOCC5)CSc5ccccc5)c(S(=O)(=O)C(F)(F)F)c4)cc3)CC2)C1 [Navitoclax] (partner 0.5 µM)
Procedure, shortened: as §1

IMD-0354 + Linsitinib = compound: O=C(Nc1cc(C(F)(F)F)cc(C(F)(F)F)c1)c1cc(Cl)ccc1O [IMD-0354] + C[C@]1(O)C[C@@H](c2nc(-c3ccc4ccc(-c5ccccc5)nc4c3)c3c(N)nccn32)C1 [Linsitinib] (partner 1 µM)
Procedure, shortened: as §1

| Cell Line | relative viability (CX-5461 + Tozasertib; first compound 0.01 µM) | relative viability (CX-5461 + Tozasertib; first compound 0.03162 µM) | relative viability (CX-5461 + Tozasertib; first compound 0.1 µM) | relative viability (CX-5461 + Tozasertib; first compound 0.3162 µM) | relative viability (CX-5461 + Tozasertib; first compound 1 µM) | relative viability (IMD-0354 + Palbociclib; first compound 0.04 µM) | relative viability (IMD-0354 + Palbociclib; first compound 0.1265 µM) | relative viability (IMD-0354 + Palbociclib; first compound 0.4 µM) | relative viability (IMD-0354 + Palbociclib; first compound 1.265 µM) | relative viability (IMD-0354 + Palbociclib; first compound 4 µM) | relative viability (IMD-0354 + Navitoclax; first compound 0.04 µM) | relative viability (IMD-0354 + Navitoclax; first compound 0.1265 µM) | relative viability (IMD-0354 + Navitoclax; first compound 0.4 µM) | relative viability (IMD-0354 + Navitoclax; first compound 1.265 µM) | relative viability (IMD-0354 + Navitoclax; first compound 4 µM) | relative viability (IMD-0354 + Linsitinib; first compound 0.04 µM) | relative viability (IMD-0354 + Linsitinib; first compound 0.1265 µM) | relative viability (IMD-0354 + Linsitinib; first compound 0.4 µM) | relative viability (IMD-0354 + Linsitinib; first compound 1.265 µM) | relative viability (IMD-0354 + Linsitinib; first compound 4 µM) |
| --- | --- | --- | --- | --- | --- | --- | --- | --- | --- | --- | --- | --- | --- | --- | --- | --- | --- | --- | --- | --- |
| EMC-BAC-2 | 0.275 | 0.314 | 0.247 | 0.252 | 0.244 | 0.534 | 0.522 | 0.423 | 0.35 | 0.34 | 1.2 | 1.17 | 0.617 | 0.977 | 0.219 | 0.909 | 0.825 | 0.549 | 0.801 | 0.207 |
| NCI-H1993 | 0.614 | 0.585 | 0.566 | 0.599 | 0.556 | 0.657 | 0.384 | 0.501 | 0.443 | 0.406 | 0.975 | 0.792 | 0.722 | 0.552 | 0.576 | 0.671 | 0.747 | 0.696 | 0.491 | 0.567 |
| NCI-H520 | 0.442 | 0.419 | 0.438 |  | 0.425 | 0.199 | 0.22 | 0.215 | 0.136 | 0.121 | 1.25 | 0.928 | 0.473 | 0.159 | 0.254 | 1.16 | 0.816 | 0.469 | 0.187 | 0.179 |
| NCI-H647 | 0.386 | 0.335 | 0.307 | 0.262 | 0.186 | 0.481 | 0.485 | 0.174 | 0.056 | 0.0731 | 1.47 | 1.57 | 0.521 | 0.198 | 0.068 | 1.36 | 1.1 | 0.515 | 0.276 | 0.158 |
| SW 1573 | 0.183 | 0.161 | 0.147 | 0.172 | 0.166 | 0.533 | 0.315 | 0.237 | 0.147 | 0.121 | 1.15 | 0.948 | 0.421 | 0.571 | 0.102 | 0.764 | 0.697 | 0.589 | 0.493 | 0.102 |
| NCI-H2009 | 0.714 | 0.776 | 0.53 | 0.713 | 0.548 | 0.179 | 0.222 | 0.191 | 0.103 | 0.112 | 1.22 | 1.02 | 0.915 | 0.642 | 0.115 | 1.16 | 1.12 | 1.02 | 0.465 | 0.139 |
| LOU-NH91 | 0.75 | 0.729 | 0.648 |  | 0.632 | 0.538 | 0.464 | 0.242 | 0.188 | 0.243 | 0.734 | 0.712 | 0.396 | 0.135 | 0.165 | 0.945 | 0.989 | 0.652 | 0.317 | 0.251 |
| NCI-H2405 | 0.746 | 0.882 | 0.702 | 0.549 | 0.544 | 0.594 | 0.509 | 0.457 | 0.282 | 0.261 | 1.08 | 0.952 | 0.612 | 0.174 | 0.113 | 1.18 | 1.06 | 0.695 | 0.335 | 0.185 |
| LCLC-97TM1 | 0.269 | 0.26 | 0.218 |  | 0.208 | 0.227 | 0.225 | 0.111 | 0.174 | 0.103 |  | 0.331 | 0.368 | 0.322 | 0.205 |  | 0.153 | 0.179 | 0.177 | 0.132 |
| NCI-H727 | 0.529 | 0.666 | 0.57 | 0.633 | 0.593 | 0.502 | 0.582 | 0.667 | 0.709 | 0.455 | 0.407 | 0.319 | 0.423 | 0.165 | 0.205 | 0.161 | 0.257 | 0.281 | 0.206 | 0.233 |
| H3255 | 0.691 | 0.603 | 0.694 | 0.568 | 0.527 | 0.33 | 0.331 | 0.306 | 0.275 | 0.274 | 0.394 | 0.715 | 0.408 | 0.089 | 0.144 | 0.931 | 0.916 | 0.509 | 0.314 | 0.237 |
| LK-2 | 0.18 | 0.182 | 0.162 |  | 0.183 | 0.521 | 0.614 |  | 0.877 | 0.185 | 1.15 | 0.812 |  | 0.777 | 0.247 | 0.527 | 0.505 |  | 0.863 | 0.19 |
| NCI-H1437 | 0.404 | 0.459 |  | 0.367 | 0.366 | 0.338 | 0.29 | 0.166 | 0.141 | 0.162 | 1.17 | 1.13 | 0.443 | 0.152 | 0.244 | 1.2 | 1.01 | 0.515 | 0.114 | 0.249 |
| LU99A | 0.265 | 0.259 | 0.253 | 0.241 | 0.272 | 0.295 | 0.418 | 0.325 | 0.279 | 0.179 | 0.644 | 0.808 | 0.654 | 0.479 | 0.148 | 0.553 | 0.527 | 0.398 | 0.452 | 0.147 |
| HCC-827 | 0.451 | 0.376 | 0.425 | 0.411 | 0.43 | 0.514 | 0.491 | 0.407 | 0.36 | 0.222 | 0.983 | 0.955 | 0.892 | 0.759 | 0.293 | 0.898 | 0.947 | 0.82 | 0.606 | 0.282 |
| NCI-H1395 | 0.811 | 0.796 | 0.757 | 0.574 | 0.588 | 0.679 | 0.682 | 0.656 | 0.397 | 0.418 | 1.15 | 1.24 | 0.931 | 0.389 | 0.311 | 1.02 | 1.28 | 0.99 | 0.395 | 0.42 |
| HCC-366 | 0.0846 | 0.0825 | 0.0964 | 0.116 | 0.0753 | 0.474 | 0.535 | 0.259 | 0.0918 | 0.0749 | 1.03 | 1.17 | 0.235 | 0.27 | 0.0258 | 0.947 | 0.85 | 0.221 | 0.365 | 0.0421 |
| BEN | 0.481 | 0.529 | 0.499 | 0.495 | 0.498 | 0.432 | 0.428 | 0.359 | 0.411 | 0.318 | 0.0569 | 0.0541 | 0.0659 | 0.0403 | 0.0444 | 0.929 | 0.771 | 0.537 | 0.435 | 0.256 |
| NCI-H23 | 0.311 | 0.429 | 0.334 | 0.362 | 0.568 | 0.482 | 0.418 | 0.349 | 0.153 | 0.189 | 0.893 | 0.814 | 0.54 | 0.394 | 0.207 | 0.643 | 0.646 | 0.425 | 0.318 | 0.19 |
| NCI-H1793 | 0.281 | 0.332 | 0.426 |  | 0.315 | 0.298 | 0.317 | 0.211 | 0.191 | 0.225 | 0.356 | 0.472 | 0.391 | 0.282 | 0.246 | 1.15 | 0.802 | 0.349 | 0.298 | 0.224 |
| 201T | 0.921 | 1.04 | 0.945 | 0.847 | 0.925 | 0.35 | 0.387 | 0.294 | 0.375 | 0.28 | 1.27 | 1.25 | 0.77 | 1 | 0.752 | 1.13 | 1.01 | 1.02 | 1.06 | 0.385 |
| NCI-H460 | 0.523 | 0.584 | 0.462 | 0.227 | 0.0722 | 0.147 | 0.138 | 0.206 | 0.024 | 0.04 | 1.21 | 0.977 | 0.0491 | 0.0709 | 0.0241 | 1.2 | 0.709 | 0.278 | 0.0367 | 0.0126 |
| HCC-15 | 0.434 | 0.586 | 0.333 | 0.321 | 0.176 | 0.733 | 0.664 | 0.627 | 0.289 | 0.1 | 0.659 | 0.652 | 0.362 | 0.297 | 0.166 | 0.801 | 0.812 | 0.489 | 0.376 | 0.141 |
| NCI-H441 | 0.515 | 0.742 | 0.643 | 0.678 | 0.362 | 0.214 | 0.196 | 0.366 | 0.12 | 0.146 |  | 0.473 | 0.38 | 0.164 | 0.217 | 0.485 | 0.659 | 0.31 | 0.234 | 0.22 |
| EPLC-272H | 0.22 | 0.381 | 0.33 |  | 0.477 | 0.267 | 0.343 | 0.349 | 0.356 | 0.131 | 1.45 | 1 | 0.54 | 1.06 | 0.25 | 1.3 | 1.09 | 0.626 | 0.945 | 0.31 |
